Source: patent publication US6491922B1, “Methods and compounds for treating autoimmune and vascular disease” (Cornell Research Foundation, Inc., priority 1996, dated 2002)

Columns and labels:
[1] = tested on: human umbilical vein endothelial cells; assay: Competition for LPG binding by LPG fragments (FACS); details: for competition with intact LPG for binding to endothelial cells: fragment 10 μM prior to intact LPG 1 μM; for Percent Inhibition: pretreatment with fragment 10 μM 15 min before intact LPG 1 μM, 15 min, 37° C., means ± SE of 3 experiments
Method: To address whether the lyso-PI and core-PI fragments may mediate cell binding, an indirect approach was used. Endothelial cells (10^6/ml) obtained by mild collagenase treatment were first incubated with either lyso-PI or core-PI (10 μM, 15 min 37° C.) prior to the addition of intact LPG (1 μM, 15 min 37° C.); PGM and PG (10 μM, 15 min 37° C.) were used as controls. Cells were washed, after incubation with anti-LPG mAb as described above (Indirect Immunofluorescence) and subjected to FACS analysis by binding of the intact LPG.

[2] = tested on: endothelial cells; assay: Endothelial adhesion to monocytes (MM6) assay; details: for inhibition of endotoxin-mediated endothelial adhesion to monocytes by LPG fragments: fragments 1-10 μM (2 μM, 1 h in FIG. 21), endotoxin 10 ng/ml 4 h
Method: Endothelial cell were isolated from human umbilical veins by an established method as described. […] In all experiments, 2-4 passages of subcultured endothelial cells were used and were grown on fibronectin-precoated 96-well plates for 2-3 days prior to use.
On the day of the experiment, endothelial cells were treated with endotoxin (E. coli, J5, 10 ng/ml) for 4 h. MM6 (1×10^5 cells) were subsequently added to the endotoxin-stimulated endothelial cells. Monocyte adhesion was performed for 20 min at 37° C. Unbound MM6 cells were removed by washing (3×). Adhesion of MM6 onto endothelium was quantitated by counting the bound MM6 cells under a microscope. […] The values of triplicates were averaged, and variations between triplicates were <5%. […] For experiments to examine if LPG could inhibit endotoxin-mediated monocyte adhesion, the endothelial cells were first preincubated with LPG (2 μM) for 1-2 h at 37° C. prior to the addition of endotoxin.

[3] = tested on: endothelial cells; assay: ^3H-lyso-PI binding to endothelial cells; parameters: species or system human; details: 1 μM, 45 min, 25° C.; 10^6 cells per ml
Method: To evaluate whether lyso-PI may directly bind to endothelial cells, endothelial cells (10^6 per ml) were incubated with ^3H-lyso-PI (1 μM [specific activity, ˜10,000 cpm/nmole], 45 min, 25° C.). As a control, endothelial cells were pretreated with LPG (20 μM, 15 min, 25° C.) before the incubation with ^3H-lyso-PI. Following incubation, the cell suspension was layed onto silicone oil (Silicones FC-50, General Electric, Waterford, N.Y.) and cell-bound ^3H-lyso-PI was separated from free-^3H-lyso-PI by centrifugation (10,000 g, 10 min, room temperature). The amount of ^3H-lyso-PI in the cell pellet and in the supernatant were solubilized in Ecoscint (National Diagnostics, Highland Park, N.J.) and quantitated by a β-emission counter (Beckman Instruments, Palo Alto, Calif.).

Substance | competition with intact LPG for binding to endothelial cells [1] | Percent Inhibition [1] | inhibitory effect of co-addition of fragments ([2]; co-addition of PG (2 μM) and core-PI (2 μM)) | inhibition of endotoxin-mediated endothelial adhesion to monocytes by LPG fragments [2] | ^3H-lyso-PI bound, of the total input ^3H-lyso-PI [3]
phosphosaccharide core-lyso-alkyl-phosphatidylinositol [core-PI] | ~30% | 32.0 ± 5.0% | No additive inhibitory effect | did not inhibit | –
^3H-Lyso-alkyl-PI [^3H-lyso-PI, reference compound] | – | – | – | – | 32.2±3.1%
lyso-alkyl-phosphatidylinositol [lyso-PI] | ~30% | 29.9 ± 6.0% | – | did not inhibit | –
